Experimental data as given in article PMC8272044, “5-Phenoxy Primaquine Analogs and the Tetraoxane Hybrid as Antimalarial Agents” (Molecules, 2021).
Where two headings read alike, the source gives them in different places.

Columns and labels:
hematin polymerization [1] = tested on: hematin polymerization; design: method as in PMID 10049273; settings: literature value; read-out: IC50, hematin polymerization inhibition; cited from earlier work
P. falciparum 3D7 = test: In vitro blood antimalarial activity, malaria SYBR green I-based fluorescence (MSF) method; assay type: cell-based; settings: Plasmodium falciparum; P. falciparum 3D7, blood stage, 48 h, mean ± SD of three biological repeats
Protocol: P. falciparum strain 3D7 (wild-type drug sensitive strain) was used in this study. This parasite was maintained continuously in vitro in human O+ erythrocytes (4% hematocrit) at 37 °C under 3% CO2 and 90% N2 in RPMI 1640 culture media (Life Technologies Limited, Paisley, UK) containing 2 mM L-Glutamine, 25 mM HEPES (Sigma), pH 7.4, 2g/L NaHCO3, 40 mg/L gentamicin, 0.37 mM hypoxanthine, and supplemented with 5 g/L Albumax I (Life Technologies, Grand Island, NY, USA). Every 3 to 4 days, the parasite culture was synchronized with 5% sorbitol and transferred into complete medium with uninfected erythrocytes. In vitro antimalarial activity was determined by using the malaria SYBR green I-based fluorescence (MSF) method. Briefly, 0.09 mL of cultured 1% ring-stage synchronized parasites and 2% hematocrit were transferred to individual wells of a standard 96-well microtiter plate and in vitro culture continued for 48 h, with 0.01 mL of compound at different concentration in each well. The compounds were first dissolved in DMSO and diluted with RPMI medium to 1% DMSO. The final concentration of DMSO in each well was 0.1%, which caused no effect on the parasite viability. Following 48 h, SYBR Green I solution (0.02 µL of 10,000X SYBR Green I/100 µL of buffer solution consisted of 20 mM Tris 20, pH 7.5, 5 mM EDTA, 0.008% w/v saponin and 0.08% v/v Triton X-100) was then added to each well, and fluorescence signals were measured by spectrofluorometer at ex485/em 535 nm. […] The result of each compound was normalized with control media for the overall background subtraction as 0% and untreated parasite with 0.1% DMSO as 100% control.

hematin polymerization [2] = test: Inhibition of hematin polymerization (heme polymerization assay); assay type: biochemical;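 for %Inh1: test concentrations in µM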;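 for %Inh2: test concentrations in µM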;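 for %Inh3: test concentrations in µM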
Protocol: The ability of the 5-phenoxy primaquine analogs to inhibit hematin polymerization was investigated using a protocol modified from the one described previously. […] After it was left standing for 15 min, Tween 20 (0.5 μM; Sigma) was added. […] The assay was performed in triplicate, and results were expressed as the percentage of inhibition relative to hemozoin formation in a negative control. The IC50 values were obtained from the sigmoidal dose–response curves using nonlinear regression curve fitting analyses with GraphPad Prism version 3.00 software. Each IC50 value is the result of at least three separate experiments.

[3] = Cytotoxicity by sulforhodamine B (SRB) colorimetric assay; assay type: cell-based, African green monkey; settings: African green monkey, Vero cells (kidney fibroblasts); Vero cells, 72 h, SRB, mean ± SD of three repeats
Excerpt: (§1) A cytotoxicity test of selected analogs against African green monkey kidney fibroblast (Vero cells) was obtained from Bioassay Laboratory, BIOTEC, NSTDA, Thailand. They were maintained continuously in MEM/EBSS medium (Hyclone Laboratories Inc., South Logan, UT, USA), supplemented with 10% heated fetal bovine serum (GE Healthcare, PAA Laboratories GmbH, Pasching, Austria), 2.2 g/L Sodium bicarbonate (Emsure, Merck kGaA, Darmstadt, Germany), and 1% sodium pyruvate (Sigma). […] Then, the cells were fixed with 100 µL of 10% trichloroacetic acid (Sigma) at 4 °C for 45 min, washed, and dried at room temperature overnight. […] Finally, 200 µL of 10× Tris-base was added to each well to dissolve protein-bound dye. The OD was determined at a wavelength of 510 nm. The control media was used for overall background subtraction as 0% and untreated cells as 100% control without any cytotoxic effect. The IC50 value of each compound was determined from the dose–response curve.

[4] = tested on: African green monkey kidney fibroblast (Vero cells); test: as above; assay type: cell-based; settings: Vero CC50 / P. falciparum 3D7 IC50
Excerpt: as §1

[5] = pH 5.0, mean ± SD of three independent repeats, read-out: IC50, inhibition of hemozoin-initiated hematin polymerization
[6] = primary data, repeat 1, read-out: IC50, heme polymerization inhibition, repeat 1
[7] = primary data, repeat 2, read-out: IC50, heme polymerization inhibition, repeat 2
[8] = primary data, repeat 3, read-out: IC50, heme polymerization inhibition, repeat 3

SMILES	IC50 (P. falciparum 3D7) [µM]	%Inh1 (hematin polymerization [2]; conc 2, repeat 1) [%]	%Inh2 (hematin polymerization [2]; conc 2, repeat 2) [%]	%Inh3 (hematin polymerization [2]; conc 2, repeat 3) [%]	%Inh1 (hematin polymerization [2]; conc 10, repeat 1) [%]	%Inh2 (hematin polymerization [2]; conc 10, repeat 2) [%]	%Inh3 (hematin polymerization [2]; conc 10, repeat 3) [%]	%Inh1 (hematin polymerization [2]; conc 50, repeat 1) [%]	%Inh2 (hematin polymerization [2]; conc 50, repeat 2) [%]	%Inh3 (hematin polymerization [2]; conc 50, repeat 3) [%]	%Inh1 (hematin polymerization [2]; conc 100, repeat 1) [%]	%Inh2 (hematin polymerization [2]; conc 100, repeat 2) [%]	%Inh3 (hematin polymerization [2]; conc 100, repeat 3) [%]	%Inh1 (hematin polymerization [2]; conc 200, repeat 1) [%]	%Inh2 (hematin polymerization [2]; conc 200, repeat 2) [%]	%Inh3 (hematin polymerization [2]; conc 200, repeat 3) [%]	%Inh1 (hematin polymerization [2]; conc 400, repeat 1) [%]	%Inh2 (hematin polymerization [2]; conc 400, repeat 2) [%]	%Inh3 (hematin polymerization [2]; conc 400, repeat 3) [%]	IC50 (hematin polymerization [2]; [5]) [µM]	also measured
COc1cc(NC(C)CCCN)c2ncccc2c1 (stereo not shown) [PQ, primaquine bisphosphate, reference compound]	11.3 ± 0.79	-2.08	16.17	4.69	-9.33	8.67	3.70	12.67	-7.00	5.24	19.42	22.96	19.59	46.18	36.04	39.63	73.12	80.96	77.01	320 ± 12	IC50 (hematin polymerization [1]): > 2500 µM; IC50 (hematin polymerization [2]; [6]): 313 µM; IC50 (hematin polymerization [2]; [7]): 310 µM; IC50 (hematin polymerization [2]; [8]): 337 µM
COc1cc(NC(C)CCCNCCCCOc2ccc(C3CCC4(CC3)OOC3(OO4)C4CC5CC(C4)CC3C5)cc2)c2ncccc2c1Oc1ccccc1 (stereo not shown) [compound 12, N^1-(4-(4-((1r,3r,5r,7r)-Dispiro[adamantane-2,3′-[1,2,4,5]tetraoxane-6′,1″-cyclohexan]-4″-yl)phenoxy)butyl)-N^4-(6-methoxy-5-phenoxyquinolin-8-yl)pentane-1,4-diamine]	0.38 ± 0.11	12.59	16.51	8.88	19.10	21.09	14.14	48.21	49.80	51.14	82.20	73.34	64.09	90.25	95.79	87.78	106.35	95.69	97.20	66.9 ± 3.5	CC50 at 72 h [3]: 17.3 ± 0.36 µM; SI, selectivity index = CC50 on Vero cells / IC50 in the blood stage [4]: 45.61; IC50 (hematin polymerization [2]; [6]): 64.5 µM; IC50 (hematin polymerization [2]; [7]): 64.3 µM; IC50 (hematin polymerization [2]; [8]): 71.8 µM
